Key:
[1] = system: MCF-7 (breast cancer) cell line; experiment: MTT cell viability assay, MCF-7; assay type: cell-based, human; details: MTT, 72 h, 1-100 µM, mean ± SD
Description: (§1) Compounds 6–49 were evaluated in vitro for their effects on the viability of the three human cancer cell lines: HCT-116 (colon cancer), MCF-7 (breast cancer) and HeLa (cervical cancer) as well as the non-cancerous keratinocyte cell line (HaCaT). The concentration required for 50% inhibition of cell viability IC50 was calculated and compared with the reference drug cisplatin, the results are shown in Table 1.
(§2) Cell lines: colon cancer (HCT-116), breast cancer (MCF-7), cervical cancer (HeLa), the human keratinocyte cell line (HaCaT); NT—not tested; IC50 was measured at concentrations 1, 10, 25, 50, and 100 µM. IC50 values are expressed as the mean ± SD of at last three independent experiments.
(§3) All chemicals, if not stated otherwise, were obtained from Sigma–Aldrich (St. Louis, MO, USA). The HCT-116 cell lines was purchased from ATCC (ATCC-No: CCL-247), while the MCF-7, HeLa and HaCaT cell lines were purchased from Cell Lines Services (Eppelheim, Germany). Cells were cultured in Dulbecco’s modified Eagle’s medium (DMEM) supplemented with 10% fetal bovine serum, 2 mM glutamine, 100 units/mL penicillin, and 100 µg/mL streptomycin. Cultures were maintained in a humidified atmosphere with 5% carbon dioxide at 37 °C in an incubator (Heraceus, HeraCell).
(§4) Cell viability was examined using the MTT (3-(4,5-dimethylthiazol-2-yl)-2,5-diphenyltetrazolium bromide) assay. Cells were seeded in 96-well plates at a density of 5 × 10^3 cells/well and treated for 72 h with the tested compounds in the concentration range of 1–100 µM (1, 10, 25, 50 and 100 µM). Then, MTT (0.5 mg/mL) was added to the medium and cells were further incubated for 2 h at 37 °C. In the next stage, cells were lysed with DMSO and the absorbance of the formazan solution was measured at 550 nm with a plate reader (1420 multilabel counter, Victor, Jügesheim, Germany). The experiment was performed in triplicate. Values are expressed as the mean ± SD of at least three independent experiments. Cisplatin was used as a positive control.

[2] = system: HaCaT (non-cancerous keratinocyte cell line); experiment: MTT cell viability assay, HaCaT; assay type: cell-based; details: Homo sapiens, 72 h, 1-100 µM, mean ± SD, non-cancerous cells
Description: as §1, §2, §3, §4

[3] = system: HeLa (cervical cancer) cell line; experiment: MTT cell viability assay, HeLa; assay type: cell-based, human; details: 72 h, MTT, 1-100 µM, mean ± SD
Description: as §1, §2, §3, §4

[4] = system: HCT-116 (colon cancer) cell line; experiment: MTT cell viability assay, HCT-116; assay type: cell-based, human; details: Homo sapiens, HCT-116, 72 h, MTT, 72 h, 1-100 µM, mean ± SD
Description: as §1, §2, §3, §4

Structure (SMILES)	IC50 ([1]; Homo sapiens, MCF7, 72 h)	IC50 ([3]; Homo sapiens, HeLa)	IC50 [4]	IC50 [1]	IC50 [3]	IC50 [2]
Cc1cc(S(=O)(=O)N=c2[nH]c3ccc(Cl)cc3[nH]2)c(SCc2nc(N)nc(N3CCN(c4ccc(Cl)c(Cl)c4)CC3)n2)cc1Cl [Compound 48, 2-[{4-Amino-6-[4-(3,4-dichlorophenyl)piperazin-1-yl]-1,3,5-triazin-2-yl}methylthio]-4-chloro-N-(5-chloro-1H-benzo[d]imidazol-2(3H)-ylidene)-5-methylbenzenesulfonamide]	32 ± 1 µM	34 ± 1 µM	34 ± 2 µM			40 ± 2 µM
Cc1cc(S(=O)(=O)N=c2[nH]c3ccc(F)cc3[nH]2)c(SCc2nc(N)nc(N3CCN(c4ccc(Cl)c(Cl)c4)CC3)n2)cc1Cl [Compound 40, 2-[{4-Amino-6-[4-(3,4-dichlorophenyl)piperazin-1-yl]-1,3,5-triazin-2-yl}metylthio]-4-chloro-N-(5-fluoro-1H-benzo[d]imidazol-2(3H)-ylidene)-5-methylbenzenesulfonamide]	43 ± 1 µM	18 ± 1 µM	16 ± 1 µM			46 ± 1 µM
CC1=NN(c2nc(N)nc(CSc3cc(Cl)c(C)cc3S(=O)(=O)N=c3[nH]c4ccc(Cl)cc4[nH]3)n2)C(C)(C)C1 [Compound 41, 2-{[4-Amino-6-(3,5,5-trimethyl-4,5-dihydro-1H-pyrazol-1-yl)-1,3,5-triazin-2-yl]metylthio}-4-chloro-N-(5-chloro-1H-benzo[d]imidazol-2(3H)-ylidene)-5-methylbenzenesulfonamide]	38 ± 2 µM	30 ± 1 µM	25 ± 1 µM			49 ± 1 µM
Cc1cc(S(=O)(=O)N=c2[nH]c3ccc(Cl)cc3[nH]2)c(SCc2nc(N)nc(N3CCN(c4ccccc4)CC3)n2)cc1Cl [Compound 45, 2-[{4-Amino-6-[4-(4-phenyl)piperazin-1-yl]-1,3,5-triazin-2-yl}metylthio]-4-chloro-N-(5-chloro-1H-benzo[d]imidazol-2(3H)-ylidene)-5-methylbenzenesulfonamide]	26 ± 1 µM	28 ± 1 µM	15 ± 1 µM			39 ± 1 µM
Cc1cc(S(=O)(=O)N=c2[nH]c3ccccc3[nH]2)c(SCc2nc(N)nc(N3CCN(C(c4ccccc4)c4ccccc4)CC3)n2)cc1Cl [Compound 31]	46 ± 2 µM	39 ± 1 µM	18 ± 1 µM			54 ± 2 µM
COc1ccccc1N1CCN(c2nc(N)nc(CSc3cc(Cl)c(C)cc3S(=O)(=O)N=c3[nH]c4ccc(Cl)cc4[nH]3)n2)CC1 [Compound 49, 2-[{4-Amino-6-[4-(2-methoxyphenyl)piperazin-1-yl]-1,3,5-triazin-2-yl}methylthio]-4-chloro-N-(5-chloro-1H-benzo[d]imidazol-2(3H)-ylidene)-5-methylbenzenesulfonamide]	35 ± 1 µM	34 ± 1 µM	30 ± 1 µM			96 ± 1 µM
CC1=NN(c2nc(N)nc(CSc3cc(Cl)c(C)cc3S(=O)(=O)N=c3[nH]c4ccc(F)cc4[nH]3)n2)C(C)(C)C1 [Compound 33, 2-{[4-Amino-6-(3,5,5-trimethyl-4,5-dihydro-1H-pyrazol-1-yl)-1,3,5-triazin-2-yl]metylthio}-4-chloro-N-(5-fluoro-1H-benzo[d]imidazol-2(3H)-ylidene)-5-methylbenzenesulfonamide]	35 ± 2 µM	30 ± 2 µM	19 ± 1 µM			48 ± 2 µM

Further lines, with some results ahead:

IC50 ([1]; Homo sapiens, MCF7, 72 h)	IC50 ([3]; Homo sapiens, HeLa)	IC50 [4]	IC50 [1]	IC50 [3]	Structure (SMILES)	IC50 [2]
47 ± 2 µM	50 ± 2 µM	48 ± 1 µM			COc1ccc(Nc2nc(N)nc(CSc3cc(Cl)c(C)cc3S(=O)(=O)N=c3[nH]c4ccc(Cl)cc4[nH]3)n2)cc1 [Compound 44, 2-[{4-Amino-6-[(4-methoxyphenyl)amino]-1,3,5-triazin-2-yl}methylthio]-4-chloro-N-(5-chloro-1H-benzo[d]imidazol-2(3H)-ylidene)-5-methylbenzenesulfonamide]	61 ± 2 µM
> 100 µM	28 ± 2 µM	35 ± 2 µM	74 ± 2 µM		Cc1cc(S(=O)(=O)N=c2[nH]c3ccc(F)cc3[nH]2)c(SCc2nc(N)nc(N3CCN(c4ccc(Cl)cc4)CC3)n2)cc1Cl [Compound 39, 2-[{4-Amino-6-[4-(4-chlorophenyl)piperazin-1-yl]-1,3,5-triazin-2-yl}metylthio]-4-chloro-N-(5-fluoro-1H-benzo[d]imidazol-2(3H)-ylidene)-5-methylbenzenesulfonamide]	76 ± 2 µM
34 ± 2 µM	31 ± 2 µM	23 ± 1 µM			CC1=NN(c2nc(N)nc(CSc3cc(Cl)c(C)cc3S(=O)(=O)N=c3[nH]c4ccccc4[nH]3)n2)C(C)(C)C1 [Compound 8, 2-{[4-Amino-6-(3,5,5-trimethyl-4,5-dihydro-1H-pyrazol-1-yl)-1,3,5-triazin-2-yl]metylthio}-N-(1H-benzo[d]imidazol-2(3H)-ylidene)-4-chloro-5-methylbenzenesulfonamide]	43 ± 2 µM
20 ± 0.6 µM	27 ± 0.5 µM	17 ± 1 µM			Cc1cc(S(=O)(=O)N=c2[nH]c3ccccc3[nH]2)c(SCc2nc(N)nc(N3CCN(c4cccc(Cl)c4)CC3)n2)cc1Cl [Compound 24, 2-[{4-Amino-6-[4-(3-chlorophenyl)piperazin-1-yl]-1,3,5-triazin-2-yl}methylthio]-N-(1H-benzo[d]imidazol-2(3H)-ylidene)-4-chloro-5-methylbenzenesulfonamide]	42 ± 2 µM
35 ± 2 µM	36 ± 2 µM	36 ± 1 µM			Cc1cc(S(=O)(=O)N=c2[nH]c3ccccc3[nH]2)c(SCc2nc(N)nc(Nc3ccc(F)cc3)n2)cc1Cl [Compound 12, 2-[{4-Amino-6-[(4-fluorophenyl)amino]-1,3,5-triazin-2-yl}metylthio]-N-(1H-benzo[d]imidazol-2(3H)-ylidene)-4-chloro-5-methylbenzenesulfonamide]	43 ± 2 µM
> 100 µM	> 100 µM	35 ± 1 µM	110 ± 3 µM	74 ± 1 µM	COc1ccc(N2CCN(c3nc(N)nc(CSc4cc(Cl)c(C)cc4S(=O)(=O)N=c4[nH]c5ccccc5[nH]4)n3)CC2)cc1 [Compound 27, 2-[{4-Amino-6-[4-(4-methoxyphenyl)piperazin-1-yl]-1,3,5-triazin-2-yl}metylthio]-N-(1H-benzo[d]imidazol-2(3H)-ylidene)-4-chloro-5-methylbenzenesulfonamide]	98 ± 2 µM
24 ± 1 µM	18 ± 1 µM	17 ± 0.5 µM			Cc1cc(S(=O)(=O)N=c2[nH]c3ccccc3[nH]2)c(SCc2nc(N)nc(N3CCN(Cc4ccccc4)CC3)n2)cc1Cl [Compound 30, 2-{[4-Amino-6-(4-benzylpiperazin-1-yl)-1,3,5-triazin-2-yl]methylthio}-N-(1H-benzo[d]imidazol-2(3H)-ylidene)-4-chloro-5-methylbenzenesulfonamide]	36 ± 2 µM
46 ± 2 µM	28 ± 1 µM	16 ± 1 µM			Cc1cc(S(=O)(=O)N=c2[nH]c3ccccc3[nH]2)c(SCc2nc(N)nc(N3CCN(c4ccc(Cl)c(Cl)c4)CC3)n2)cc1Cl [Compound 25, 2-[{4-Amino-6-[4-(3,4-dichlorophenyl)piperazin-1-yl]-1,3,5-triazin-2-yl}metylthio]-N-(1H-benzo[d]imidazol-2(3H)-ylidene)-4-chloro-5-methylbenzenesulfonamide]	52 ± 2 µM
> 100 µM	> 100 µM	75 ± 3 µM	99 ± 3 µM	86 ± 3 µM	Cc1cc(S(=O)(=O)N=c2[nH]c3ccccc3[nH]2)c(SCc2nc(N)nc(N3CCOCC3)n2)cc1Cl [Compound 7, 2-[(4-Amino-6-morpholino-1,3,5-triazin-2-yl)methylthio]-N-(1H-benzo[d]imidazol-2(3H)-ylidene)-4-chloro-5-methylbenzenesulfonamide]	102 ± 4 µM
24 ± 1 µM	17 ± 0.5 µM	15 ± 1 µM			Cc1cc(S(=O)(=O)N=c2[nH]c3ccccc3[nH]2)c(SCc2nc(N)nc(N3CCN(c4ccccc4F)CC3)n2)cc1Cl [Compound 21, 2-[{4-Amino-6-[4-(2-fluorophenyl)piperazin-1-yl]-1,3,5-triazin-2-yl}metylthio]-N-(1H-benzo[d]imidazol-2(3H)-ylidene)-4-chloro-5-methylbenzenesulfonamide]	32 ± 1 µM
52 ± 1 µM	50 ± 2 µM	49 ± 1 µM			Cc1cc(S(=O)(=O)N=c2[nH]c3ccccc3[nH]2)c(SCc2nc(N)nc(N(C)C)n2)cc1Cl [Compound 6, 2-{[4-Amino-6-(dimethylamino)-1,3,5-triazin-2-yl]methylthio}-N-(1H-benzo[d]imidazol-2(3H)-ylidene)-4-chloro-5-methylbenzenesulfonamide]	57 ± 3 µM

Source: article PMC7215599, “Synthesis, Antitumor Evaluation, Molecular Modeling and Quantitative Structure–Activity Relationship (QSAR) of Novel 2-[(4-Amino-6-N-substituted-1,3,5-triazin-2-yl)methylthio]-4-chloro-5-methyl-N-(1H-benzo[d]imidazol-2(3H)-ylidene)Benzenesulfonamides” (International Journal of Molecular Sciences, 2020)
